Measured values taken from patent US20040029865A1, “Bis-arylsulfones” (priority 2002, published 2004).

Columns and labels:
Type in all cases: physicochemical
[1] = Dynamic moisture sorption gravimetry (DMSG); conditions: for Δ-Wt (%) DMSG: 0-90% RH: moisture sorption weight change; for moisture absorption (Δ-Wt(%) DMSG) relative to other salts: comparison with other salts
Protocol: Dynamic moisture sorption gravimetry (DMSG): DMSG isotherms were collected on the variable temperature controlled atmospheric microbalance, CAM. Approximately 10 mg samples were used in the balance, samples were run as received. The humidity was set at ambient conditions on the day analysis began. After the first scan with fast scan rate from ambient RH to 0% RH; the DMSG analysis followed with three more scans: 0% RH to 90% RH, 90% RH to 0% RH, 0% RH to 90% RH. The scan rate was 3% RH/step. The mass was measured every two minutes and an equilibrium window of 5 points within 0.001 mg. The RH was changed to the next value (+/−3% RH) when the mass of the sample was stable to within 1.0 μg. The Visual Basic program dmsgscn2.exe was used to control the data collection and export the information to an Excel spreadsheet.

[2] = Two-week solid-state stability at stressed conditions (high RH / high temperature), assessed by Powder-XRD; conditions: for Stability at high Temp (70° C.) / Stability at high RH (88%): two weeks, Powder-XRD; for Stability at high RH (88%): 88% RH; for physical stability at stressed conditions (high temperature and/or high humidity) relative to other salts: comparison with other salts
Protocol: X-ray Diffraction (XRD) Analysis: A Scintag X-2 theta/theta scanning diffractometer (Scintag Inc., Cupertino Calif.) was employed for the XRD data acquisition for this study. […] Major instrumental parameters are set as follows: 45 KV voltage, 40 mA current, divergent slit width of 2 mm, detector scatter slit width of 0.5 mm and receiving slit width of 0.3 mm. Each XRD pattern was scanned over the spectral range of 2-40° two-theta angle with a step scan algorithm with a step size of 0.03° two-theta angle/step. The raw XRD data, exported in ASCII format, is then converted to the binary format with Galactic's Grams software (Galactic Industries Corp., Salem N.H.) for data analysis, storage and output.

[3] = Conversion of crystal form II to form I upon stirring in aqueous or hot-ethanol
Excerpt: See results in Table 2 below.

Row | Molecule | Δ-Wt (%) DMSG: 0-90% RH [1] | Stability at high Temp (70° C.) [2] | Stability at high RH (88%) [2] | moisture absorption (Δ-Wt(%) DMSG) relative to other salts [1] | physical stability at stressed conditions (high temperature and/or high humidity) relative to other salts [2] | other results
1 | CC(=O)Nc1cc(N2CCCNCC2)ccc1S(=O)(=O)c1cccc(F)c1.O=C(O)C(F)(F)F [Example 3, N-{5-(1,4-diazepan-1-yl)-2-[(3-fluorophenyl)sulfonyl]phenyl}acetamide Trifluoroacetate] | 0.8% | Stable | Stable | lower moisture absorption | better physical stability | 
2 | CC(=O)Nc1cc(N2CCCNCC2)ccc1S(=O)(=O)c1cccc(F)c1.O=C(O)/C=C\C(=O)O [Example 4, N-{5-(1,4-diazepan-1-yl)-2-[(3-fluorophenyl)sulfonyl]phenyl}acetamide Maleate, Crystal Form I] | 0.7% | Stable | Stable |  |  | Stability at high Temp (70° C.) ([2]; listed as form I): excellent physical stability; Stability at high RH (88%) ([2]; listed as form I): excellent physical stability; thermodynamic preference between crystal forms [3]: thermodynamically favored relative to form II
3 | CC(=O)Nc1cc(N2CCCNCC2)ccc1S(=O)(=O)c1cccc(F)c1.O=C(O)/C=C\C(=O)O [Example 5 (Form II), N-{5-(1,4-diazepan-1-yl)-2-[(3-fluorophenyl)sulfonyl]phenyl}acetamide maleate] |  |  |  |  |  | Δ-Wt (%) DMSG: 0-90% RH ([1]; maleate): 0.3%; Stability at high Temp (70° C.) ([2]; listed as form II, maleate): excellent physical stability; Stability at high Temp (70° C.) ([2]; maleate): Stable; Stability at high RH (88%) ([2]; listed as form II, maleate): excellent physical stability; Stability at high RH (88%) ([2]; maleate): Stable
4 | CC(=O)Nc1cc(N2CCCNCC2)ccc1S(=O)(=O)c1cccc(F)c1.Cc1ccc(S(=O)(=O)O)cc1 [Example 8, N-{5-(1,4-diazepan-1-yl)-2-[(3-fluorophenyl)sulfonyl]phenyl}acetamide Tosylate] | 1.9% | Stable | Stable | lower moisture absorption | better physical stability | 
5 | CC(=O)Nc1cc(N2CCCNCC2)ccc1S(=O)(=O)c1cccc(F)c1.O=C(O)/C=C/C(=O)O [Example 9, N-{5-(1,4-diazepan-1-yl)-2-[(3-fluorophenyl)sulfonyl]phenyl}acetamide Hemi-fumarate] | 3.0% | Stable | Unstable** |  |  | 
6 | CC(=O)Nc1cc(N2CCCNCC2)ccc1S(=O)(=O)c1cccc(F)c1 [Example 11, N-{5-(1,4-diazepan-1-yl)-2-[(3-fluorophenyl)sulfonyl]phenyl}acetamide Hemi-tartrate] |  | Stable | Unstable** |  |  | 
7 | CC(=O)Nc1cc(N2CCCNCC2)ccc1S(=O)(=O)c1cccc(F)c1.O=C(O)/C=C\C(=O)O [maleate, N-{5-(1,4-diazepan-1-yl)-2-[(3-fluorophenyl)sulfonyl]phenyl}acetamide maleate] |  |  |  | lower moisture absorption | better physical stability | 
8 | N-{5-(1,4-diazepan-1-yl)-2-[(3-fluorophenyl)sulfonyl]phenyl}acetamide Hemi-malate [Example 10] | 1.5% | Unstable** | Stable |  |  | 
9 | N-{5-(1,4-diazepan-1-yl)-2-[(3-fluorophenyl)sulfonyl]phenyl}acetamide Hemi-succinate [Example 7] | 5.0% | Unstable** | Unstable** |  |  | 

The next lines start with results.

Row | Δ-Wt (%) DMSG: 0-90% RH [1] | Stability at high Temp (70° C.) [2] | Stability at high RH (88%) [2] | moisture absorption (Δ-Wt(%) DMSG) relative to other salts [1] | physical stability at stressed conditions (high temperature and/or high humidity) relative to other salts [2] | Molecule | other results
10 | Deliquesced | Stable | Deliquesced |  |  | CC(=O)Nc1cc(N2CCCNCC2)ccc1S(=O)(=O)c1cccc(F)c1.CS(=O)(=O)O [Example 1, N-{5-(1,4-diazepan-1-yl)-2-[(3-fluorophenyl)sulfonyl]phenyl}acetamide Methanesulfonate] | 
11 | 0.8% | Stable | Stable | lower moisture absorption | better physical stability | CC(=O)Nc1cc(N2CCCNCC2)ccc1S(=O)(=O)c1cccc(F)c1.Cl [Example 2, N-{5-(1,4-diazepan-1-yl)-2-[(3-fluorophenyl)sulfonyl]phenyl}acetamide Hydrochloride] | 
12 | 2.5% | Stable | Unstable*** |  |  | CC(=O)Nc1cc(N2CCCNCC2)ccc1S(=O)(=O)c1cccc(F)c1.O=C(O)CC(O)(CC(=O)O)C(=O)O [Example 6, N-{5-(1,4-diazepan-1-yl)-2-[(3-fluorophenyl)sulfonyl]phenyl}acetamide Hemi-citrate] | 
